Reference: patent publication US20090220490A1, “Compositions and Assays for Inhibiting HCV Infection” (priority 2006, published 2009)
“Also recorded” adds a separate entry of the source. Where a SMILES comes first, the peptide text is derived from it. The star is where a group is joined. FITC = O=C1OC2(c3ccc(O)cc3Oc3cc(O)ccc32)c2ccc(NC(=S)*)cc21

Legend:
Type in all cases: cell-based
HCV genotype 1 = experiment: HCV replication (HCV RNA expression) in serum-derived HCV-infected human hepatocyte cultures
Source text: (§1) Sera from 25 HCV-infected patients and 3 control subjects were obtained at the VA San Diego Healthcare System Clinical Laboratory. The subject population included individuals with chronic HCV infection, viral load>200,000 IU/ml and genotypes 1 (N: 15), 2 (N: 3), 3 (N: 4), or 4 (N: 3), but negative for Hepatitis A and B, CMV and HIV. Control sera were obtained from subjects negative for Hepatitis A, B and C, CMV and HIV. In different experiments, the inoculums fluctuated between 3,728 and 68,000 HCV viral particles.
(§2) The hepatocytes were cultured for serum-derived HCV infection under the following conditions: 1) the matrix was rat-tail collagen (BD); 2) the collagen matrix was prepared within 24 hr of hepatocyte plating, at a concentration of 50 μg/ml or greater; 3) the culture plates were coated with polylysine; 4) the rinsing of the matrix was minimal; 5) the suspended hepatocytes were allowed to attach in 20% fetal calf serum for not more than 18 hr; 6) the hepatocyte-specific media was given for at least 24 hr prior to the HCV infection; 7) the hepatocytes were >85% confluent until the time of infection; 8) hepatocyte cultures with >5% apoptosis by annexin-V assays and/or increases>3-fold in ALT were discarded; and 9) hepatocyte media was added every 48 hr.
(§3) Total RNA was isolated from HCV infected primary human hepatocytes using the Ultraspec TM-II RNA kit from Biotecx Inc. (Texas) following the manufacturers protocol. The cDNA synthesis was performed using Stratascript RT MMuLV RNAse H free and Stratascript RT buffer (Stratagene), per manufacturers protocol, using:
(§4) PCR was performed on the cDNA using the cDNA reaction mixture with Qiagen's HotStar High Fidelity polymerase. Amplicons were run on 2% TBE agarose gels and imaged on a KODAK Imaging station.

HCV genotype 3 = experiment: as above; settings: peptide 90 μM (text: picomolar), treated 4 hr after the HCV infection (FIG. 13F)
Source text: as §1, §2, §3, §4

HCV genotype 4 = experiment: as above; settings: peptide 90 μM (text: picomolar), treated 4 hr after the HCV infection (FIG. 13F)
Source text: as §1, §2, §3, §4

[1] = test system: endogenous AP-50 phosphorylation on Thr156; experiment: confocal microscopy of AP-50 phosphoT156 in HCV-infected human hepatocyte cultures; settings: HCV genotype 1-infected human hepatocyte cultures, 72 hr, epitope specific antibodies (FIG. 13D)
Experimental: (§5) Fluorescent labels were observed using a triple-channel fluorescence microscope or a confocal microscope. Fluorochromes utilized included TOPRO-3 (blue), Alexa 488 (green) and Alexa 594 (red) (Molecular Probes). The percentage of HCV infected hepatocytes was determined by confocal microscopy using HCV E2 and core specific antibodies (Buck, et al., Mol. Cell. 8, 807 (2001); Rudel et al., Science 276, 1571 (1997). AP-50 and AP-50-phosphoT^157 were detected with specific antibodies (Zhang et al., Traffic 6, 1103 (2005); Smythe, Nature 431, 641 (2004)). At least 100 cells were analyzed per experimental point (Buck et al. EMBO J 20, 6712 (2001)). The nuclear morphology were analyzed by staining cells with TOPRO-3 ([…]). Two observers analyzed each immunofluorescent study.
(§6) Primary hepatocytes were fixed with 50/50 acetone/methanol at −20° C. for 20 minutes and allowed to air dry at room temperature. Blocking of non-specific epitopes was done with PBS+3% BSA for 30 minutes at room temperature. Primary antibodies were used at 1:100 dilutions in PBS+3% BSA, for 1 hour at room temperature washes were done with PBS. […] At least 100 cells were analyzed per experimental point. We analyzed the nuclear morphology by staining cells with TO-PRO-3 (Molecular Probes). […]

human hepatocytes = experiment: cell toxicity by release of lactic dehydrogenase (LDH) into the medium
Experimental: Toxicity of AP-50 peptides to human hepatocyte cultures was determined by measuring lactic dehydrogenase (Sigma) in the medium.

[2] = test system: HCV-infected human hepatocytes; experiment: confocal microscopy of FITC-labelled peptide: cell entry and association with HCV E2
Experimental: as §5, §6

With `CC(C)[C@H](NC(=O)[C@H](CCC(N)=O)NC(=O)[C@H](CCCNC(=N)N)NC(=O)[C@H](CCCNC(=N)N)NC(=O)[C@H](CCCNC(=N)N)NC(=O)[C@H](CCC(N)=O)NC(=O)[C@H](CCCNC(=N)N)NC(=O)[C@H](CCCNC(=N)N)NC(=O)[C@H](CCCCN)NC(=O)[C@H](CCCCN)NC(=O)[C@H](CCCNC(=N)N)NC(=O)CNC(=O)[C@H](Cc1ccc(O)cc1)NC(=O)CNC(=O)CNC(=O)CNC(=O)CNC(=S)Nc1ccc2c(c1)C(=O)OC21c2ccc(O)cc2Oc2cc(O)ccc21)C(=O)N[C@@H](C)C(=O)NCC(=O)N[C@@H](CCC(N)=O)C(=O)O` [AP-50 peptide] ({FITC}-GGGGYGRKKRRQRRRQVAGQ-OH; N-terminus and C-terminus assumed) the “HCV replication, detected by expression of HCV RNA” value (HCV genotype 1; peptide 90 pM, 72 hr, given at time zero of the infection (FIG. 13E)) was “blocked HCV replication; also recorded: inhibited HCV replication”, the “HCV replication, detected by expression of HCV RNA at 72 hr” value (“HCV replication, detected … at 72 hr” below) (HCV genotype 1; peptide 90 μM (text: picomolar), treated 4 hr after the HCV infection (FIG. 13F)) was “inhibited HCV replication” and the “HCV replication, detected … at 72 hr” value (HCV genotype 3) was “inhibited HCV replication”. For the same compound, the “HCV replication, detected … at 72 hr” value (HCV genotype 4) was “inhibited HCV replication”, the “phosphorylation of endogenous AP-50 on Thr156” value [1] was “inhibited the phosphorylation; also recorded: blocked phosphorylation” and the “LDH values / viability of HCV-infected hepatocytes treated with peptide” value (human hepatocytes; human hepatocytes infected with HCV genotypes 1, 3 or 4, 72 hr, relative to control (FIG. 14)) was “improving the viability; also recorded: normalized”. The “cellular toxicity (LDH release into the medium)” value (human hepatocytes; human hepatocytes treated with peptide for 72 hr (FIG. 14)) was “not toxic”, the “association with HCV E2 in cells (confocal microscopy, merge)” value ([2]; HCV-infected human hepatocytes, 72 hr (FIG. 13B)) was “associated with HCV E2” and the “cell permeability (intracellular FITC fluorescence)” value ([2]; human hepatocytes, 72 hr, HCV genotype 1 (FIG. 13B)) was “cell permeable; also recorded: intracellular”.
